Assay [1] has as its target Clostridium botulinum neurotoxin serotype A truncated light chain (residues 1 to 424), Balc424 (Clostridium botulinum, UniProt P0DPI0). In words: biochemical. The note with it: 37°C, 30 min.
A further assay concerns the target BoNT/A. Conditions: read-out: Kι; cited from earlier work.

The values below come from article PMC2533696 (PLoS Pathogens, 2008).

Where a SMILES comes first, the peptide text is derived from it. Where no end group is shown, it is not given here.

Sequence of Clostridium botulinum neurotoxin serotype A truncated light chain (residues 1 to 424), Balc424 (P0DPI0 1-424 limits assumed): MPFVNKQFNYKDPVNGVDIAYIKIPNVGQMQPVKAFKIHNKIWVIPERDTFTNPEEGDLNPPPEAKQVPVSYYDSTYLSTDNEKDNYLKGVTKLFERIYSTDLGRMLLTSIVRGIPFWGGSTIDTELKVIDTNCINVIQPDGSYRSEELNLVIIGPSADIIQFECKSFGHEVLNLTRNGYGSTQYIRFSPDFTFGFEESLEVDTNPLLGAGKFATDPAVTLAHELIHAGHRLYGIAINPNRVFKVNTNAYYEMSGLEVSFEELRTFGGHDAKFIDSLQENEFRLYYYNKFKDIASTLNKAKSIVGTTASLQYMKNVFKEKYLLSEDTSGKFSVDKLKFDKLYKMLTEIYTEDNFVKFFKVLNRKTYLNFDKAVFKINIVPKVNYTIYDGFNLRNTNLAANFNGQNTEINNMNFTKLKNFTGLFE

What is called IC50 is the point on the concentration scale where inhibition reaches its midpoint. A higher IC50 goes with a need for much substance. In turn, `CSCC[C@H](NC(=O)[C@H](CCCCN)NC(=O)[C@@H](NC(=O)[C@H](C)NC(=O)[C@H](CCCNC(=N)N)NC(=O)[C@@H](N)CCC(N)=O)[C@@H](C)O)C(N)=O` [QRATKM] (H-QRATKM-NH2) gave an IC50 in assay [1] of 133 µM. With Ac-CRATKML, at BoNT/A, the Ki is 1.9 µM.
